Results on one compound are retold here after patent US20240165089A1, “METHOD FOR TREATING MYOPIA WITH VINPOCETINE” (EYE HOSPITAL, WENZHOU MEDICAL UNIVERSITY, priority 2021, published 2024).

Data set [1] deals with rats. Particulars: rat, in vivo, cited from earlier work.
Data set [2] concerns choroid of LIM guinea pigs. In words: choroidal thickness and blood flow by OCTA, LIM group. Particulars: 1 week, vs solvent injection group. In kind it is in vivo, guinea pig. On the procedure:
The choroidal blood flow parameters and choroidal thickness were measured for the animals in the above FDM group after 1 week of continuous administration and at the end of the 2 week-administration experiment and for the animals in the LIM group at the end of the 7 day-administration experiment. Choroidal blood flow parameters and thickness were measured using a modified commercial OCTA (Spectralis HRA+OCT, OCTA, Heidelberg, Germany) which is more suitable for animal eyeballs. Before the measurement, the guinea pigs were fully anesthetized (a mixture of ketamine hydrochloride 60 mg/kg and xylazine hydrochloride 9 mg/kg, intraperitoneally injected), and then the guinea pig OCTA images were obtained, and the measurement results were quantified through a self-written program (MatLab R2017a, MathWorks). Real-time quantitative detection of choroidal blood flow and thickness in guinea pigs was achieved (Sen Zhang, Invest Ophthalmol Vis Sci. 2019 Jul. 1; 60(8):3074-3083).
Vinpocetine is known to improve blood circulation. The inventors used the method of example 1 to detect changes of indicator signals of choroidal thickness ChT and choroidal blood flow ChBP of FDM (1 week and 2 weeks of administration) and LIM (1 week of administration) at different time points during the administration cycle.

The conditions of data set [3]: rats; cited from earlier work.

Like-named read-outs stand apart in the source and are kept apart here.

Turning to `CCOC(=O)C1=C[C@]2(CC)CCCN3CCc4c(n1c1ccccc41)[C@@H]32` [vinpocetine], the toxicity findings result was “no obvious abnormality” in data set [1] (20 mg/kg/day); “signs of weight loss and food intake reduction” in data set [1] (40 mg/kg). Besides, the LD50 entry in data set [1] (po) is given as “approximately 500 mg/kg”. The “choroidal thickness ChT” value in data set [2] (not statistically significant) is “only slightly increased”. Also, the “choroidal blood perfusion ChBP” value in data set [2] (p=0.766) was “only slightly increased”. For the same compound, the oral bioavailability in data set [3] is given as 52%.
